Measured values reported in patent US20250019652A1, “PRODUCTION METHOD FOR SHEET-LIKE RETINAL TISSUE” (RIKEN, priority 2021, published 2025).

Key:
Type in all cases: cell-based, human
[1] = tested on: single cells dispersed from KhES-1- and 1231A3-derived aggregates; test: Aggregate proliferation-promoting factor: aggregate area in suspension culture with Y-27632 (Example 2); settings: SAG 300 nM or CHIR99021 3 μM in addition to 10 μM Y-27632; Day 1, 7, 14
Experimental: The aggregates of Day 20 (1231A3) and Day 27 (KhES-1) from initiation of the suspension culture prepared as in Example 1 were washed with PBS, and a neuronal cell dispersion solution (manufactured by FUJIFILM Wako Pure Chemical Corp.) was added. After incubation at 37° C., they were dispersed into single cells by pipetting. These cells were suspended in 100 μL of a serum-free medium containing 10 μM Y-27632 (FUJIFILM Wako Pure Chemical Corp.) so as to become 2 to 5×10^5 cells per well of a non-cell adhesive 96-well culture plate (trade name: PrimeSurface 96-well V-bottom plate, manufactured by Sumitomo Bakelite Co., Ltd.), and suspension-cultured at 37° C. and 5% CO2. […] The reformed states of the aggregates were observed under a bright field microscope and a fluorescence microscope (BZ-X810 manufactured by Keyence Corp.) on Day 1, Day 7, and Day 14 after suspension culture for aggregate reforming. The areas of the aggregates were measured in Image J. The results of the KhES-1-derived cells are shown in FIG. 6 (an average value from 12 […] measured). The results of the 1231A3-derived cells in which the reformed states of the aggregates of Day 1 after suspension culture were observed are shown in FIG. 7.

[2] = tested on: single cell suspension of dispersed retinal cells (KhES-1-derived); test: Layer structure formation-promoting factor: reformed aggregates, immunostained sections (Example 3); settings: 3 μM CHIR99021
Experimental: The aggregates of Day 26 from initiation of the suspension culture prepared as in Example 1 were washed with PBS, and a neuronal cell dispersion solution (manufactured by FUJIFILM Wako Pure Chemical Corp.) was added. After incubation at 37° C., they were dispersed into single cells by pipetting. These cells were suspended in 100 μL of a serum-free medium so as to become 3.0×10^4 cells per well of a non-cell adhesive 96-well culture plate (trade name: PrimeSurface 96-well V-bottom plate, manufactured by Sumitomo Bakelite Co., Ltd.), and suspension-cultured at 37° C. and 5% CO2.
The aggregates of Day 15 (corresponding to Differentiation Day 41) and Day 28 (corresponding to Differentiation Day 54) after suspension culture for aggregate reforming were fixed in 4% PFA, and frozen sections were prepared. These frozen sections were subjected to immunostaining using DAPI and anti-Chx10 antibody (trade name: Anti CHX10 Antibody, Exalpha Biologicals Inc.), anti-β-catenin antibody (R&D Systems, Inc.), anti-collagen IV antibody (Abcam plc), anti-Zo-1 antibody (Invitrogen Corp.), anti-Ki67 antibody (Becton, Dickinson and Company), anti-Pax6 antibody (BioLegend, Inc.), anti-RxR-γ (RxRg) antibody (Spring Bioscience Corp.), anti-CRX antibody (Abnova Corp.), anti-NRL antibody (R&D Systems, Inc.), anti-recoverin antibody (manufactured by Proteintech Group, Inc.), anti-Islet-1 antibody (Developmental Studies Hybridoma Bank (DSHB)), anti-GS antibody (Sigma-Aldrich Co., LLC), anti-Brn3 antibody (Santa Cruz Biotechnology), and anti-calretinin antibody (R&D Systems, Inc.).
These immunostained sections were observed under a bright field microscope and a fluorescence microscope (BZ-X810 manufactured by Keyence Corp.) and a confocal laser scanning fluorescence microscope (SP-8 manufactured by Leica), and the results are shown in FIGS. 11 to 20. […] From FIGS. 19 and 20, it was confirmed that RxR-Y(RxRg)-positive and CRX-positive cone progenitor cells and recoverin-positive and CRX-positive photoreceptor progenitor cells were differentiated, and the differentiation of Islet-1-positive and Brn3-positive retinal ganglion cells and calretinin-positive amacrine cells was also confirmed.

[3] = tested on: retinal cells (NR) dispersed into single cells (KhES-1-derived); test: Seeding onto Transwell: confirmation of effect of CHIR99021 (Example 9); settings: CHIR99021 5 μM or 3 μM with Y-27632 (and SAG); Day 14
Experimental: (§1) The aggregates of Days 15 to 30 from initiation of the suspension culture prepared as in Example 1 were washed with PBS, and a neuronal cell dispersion solution (manufactured by FUJIFILM Wako Pure Chemical Corp.) was added. After incubation at 37° C., they were dispersed into single cells by pipetting.
When cell sheets obtained on Culture Day 14 for aggregate reforming were observed, it was confirmed that the cells were engrafted under all the conditions (FIG. 29). Accordingly, these cell sheets were fixed in 4% PFA, and frozen sections were prepared. These frozen sections were subjected to immunostaining using DAPI and anti-Zo-1 antibody (trade name: Anti Zo-1 Antibody, manufactured by Invitrogen Corp.) and anti-collagen IV antibody (Abcam plc). These immunostained sections were observed under a confocal laser scanning fluorescence microscope.

[4] = tested on: retinal cells (NR) dispersed into single cells (KhES-1-derived, dd33); test: Seeding onto Transwell: concentration and addition period of CHIR99021 (Example 10); settings: 1 μM to 9 μM CHIR99021 for 3 days to 9 days
Experimental: as §1, with “33 days (dd33) after the start” for “Days 15 to 30 from initiation”, “pipetting. […] 3 days or later from seeding, the medium was replaced once every 3 to 4 days.” for “pipetting.”
Accordingly, these cell sheets were fixed in 4% PFA, and frozen sections were prepared. These frozen sections were subjected to immunostaining using DAPI.

Structure (SMILES): Cc1c[nH]c(-c2cnc(NCCNc3ccc(C#N)cn3)nc2-c2ccc(Cl)cc2Cl)n1 [CHIR99021]
- size of reformed aggregates versus only Y-27632 [1]: larger aggregates were reformed
- reforming of aggregates ([2]; Day 1, Day 14, Day 28): aggregates were reformed
- apical-basal polarity (Zo-1, collagen IV) ([2]; Day 15 and Day 28 sections): epithelial tissue having apical and basal polarities was formed
- layer structure formation (Rx::Venus, Chx10) ([2]; Day 15 and Day 28 sections): a layer structure where Rx::Venus-positive and Chx10-positive neural retinal progenitor cells were contained was formed
- apical and basal polarity of sheet [3]: sheets of Rx::Venus-positive retinal progenitor cells having apical and basal polarities were formed again
- reforming of thick sheets [4]: thick sheets of Rx::Venus-positive retinal progenitor cells were reformed
